Measured values as given in ChEMBL document CHEMBL4118254, “1,2-Diphenoxiethane salts as potent antiplasmodial agents” (Bioorg Med Chem Lett, 2018).

Columns and labels:
Plasmodium falciparum [1] = assay: Antiplasmodial activity against Plasmodium falciparum 3D7 infected in human erythrocytes after 72 hrs by SYBR green 1-based fluorimetric assay; assay type: functional, organism-based; conditions: 3D7, 72 h
[2] = Inhibition of Plasmodium falciparum choline kinase using [1-14C]ethanolamine as substrate assessed as reduction in rate of incorporation of […] preincubated for 5 mins followed by substrate addition measured after 10 mins by liquid scintillation counter
[3] = Inhibition of Plasmodium falciparum choline kinase using [methyl-14C]choline as substrate assessed as reduction in rate of incorporation of 14C from [methyl-14C]choline into phosphocholine preincubated for 5 mins followed by substrate addition measured after 10 mins by liquid scintillation counter
Choline kinase = biological target: T1, Choline kinase (Plasmodium falciparum (isolate 3D7), UniProt Q8IM71); assay: Inhibition of Plasmodium falciparum 3D7 choline kinase expressed in Escherichia coli BL21(DE3) assessed as reduction in phosphocholine formation
T1 sequence (Q8IM71 whole entry): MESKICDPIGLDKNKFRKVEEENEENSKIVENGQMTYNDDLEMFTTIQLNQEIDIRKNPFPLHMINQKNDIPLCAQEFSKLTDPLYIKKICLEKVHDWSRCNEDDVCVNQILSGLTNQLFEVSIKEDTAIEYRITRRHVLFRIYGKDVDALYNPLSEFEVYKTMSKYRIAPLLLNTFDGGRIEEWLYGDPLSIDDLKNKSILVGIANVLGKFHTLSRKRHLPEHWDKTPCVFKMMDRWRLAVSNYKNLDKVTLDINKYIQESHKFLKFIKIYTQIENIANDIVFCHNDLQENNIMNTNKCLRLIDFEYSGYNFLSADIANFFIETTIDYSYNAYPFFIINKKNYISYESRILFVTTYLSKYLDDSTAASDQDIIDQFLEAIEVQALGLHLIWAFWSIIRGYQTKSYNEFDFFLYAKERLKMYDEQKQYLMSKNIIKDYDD

Plasmodium falciparum [4] = assay: Antiplasmodial activity against Plasmodium falciparum Dd2 infected in human erythrocytes after 48 hrs by picogreen-microfluorimetric assay; assay type: functional, organism-based; conditions: Dd2, 48 h
Choline kinase alpha = Choline kinase alpha (Homo sapiens, UniProt P35790); assay: Inhibition of human choline kinase alpha1 using [methyl-14C]choline as substrate assessed as reduction in rate of incorporation of 14C from [methyl-14C]choline into phosphocholine preincubated for 5 mins followed by substrate addition measured after 10 mins by scintillation counting
Choline kinase alpha, sequence (P35790 whole entry): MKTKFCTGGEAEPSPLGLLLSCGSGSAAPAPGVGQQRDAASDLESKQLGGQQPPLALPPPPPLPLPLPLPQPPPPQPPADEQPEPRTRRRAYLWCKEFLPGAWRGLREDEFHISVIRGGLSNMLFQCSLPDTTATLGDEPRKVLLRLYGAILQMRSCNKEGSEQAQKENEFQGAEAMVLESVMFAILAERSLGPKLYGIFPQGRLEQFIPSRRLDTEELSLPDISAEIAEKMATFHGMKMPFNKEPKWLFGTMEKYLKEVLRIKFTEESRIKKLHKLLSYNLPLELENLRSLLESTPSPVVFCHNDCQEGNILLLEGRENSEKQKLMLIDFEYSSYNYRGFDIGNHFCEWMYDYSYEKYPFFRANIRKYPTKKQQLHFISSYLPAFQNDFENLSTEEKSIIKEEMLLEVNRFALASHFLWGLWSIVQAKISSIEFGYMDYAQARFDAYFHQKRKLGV

CN(C)c1cc[n+](Cc2ccc(OCCOc3ccc(C[n+]4ccc(N(C)C)cc4)cc3)cc2)cc1.[Br-].[Br-]
IC50 (Plasmodium falciparum [1]): 0.016 µM
IC50 [2]: Not Active
IC50 [3]: ≥ 100 µM

C[N+]1(C)CCOC(O)(c2ccc(-c3ccc(C4(O)C[N+](C)(C)CCO4)cc3)cc2)C1 (stereo not given) [HEMICHOLINIUM-3]
IC50 (Choline kinase): 250 µM
IC50 (Plasmodium falciparum [1]): > 50 µM
IC50 (Plasmodium falciparum [4]): > 50 µM
IC50 [3]: 250 µM

c1cc(OCCOc2ccc(C[N+]34CCC(CC3)CC4)cc2)ccc1C[N+]12CCC(CC1)CC2
IC50 (Plasmodium falciparum [1]): 0.177 µM

Clc1ccc2c(N3CCCCCC3)cc[n+](Cc3ccc(OCCOc4ccc(C[n+]5ccc(N6CCCCCC6)c6ccc(Cl)cc65)cc4)cc3)c2c1
IC50 (Plasmodium falciparum [1]): 0.035 µM
IC50 ([2]; read-out: IC50): > 50 µM
IC50 [3]: 10.9 µM

CN(c1ccccc1)c1cc[n+](Cc2ccc(OCCOc3ccc(C[n+]4ccc(N(C)c5ccccc5)c5ccccc54)cc3)cc2)c2ccccc12
IC50 (Plasmodium falciparum [1]): 0.162 µM

Clc1ccc2c(N3CCCC3)cc[n+](Cc3ccc(OCCOc4ccc(C[n+]5ccc(N6CCCC6)c6ccc(Cl)cc65)cc4)cc3)c2c1
IC50 (Plasmodium falciparum [1]): 0.059 µM
IC50 [3]: 14.1 µM

CN(c1ccc(Cl)cc1)c1cc[n+](Cc2ccc(OCCOc3ccc(C[n+]4ccc(N(C)c5ccc(Cl)cc5)c5ccccc54)cc3)cc2)c2ccccc12
IC50 (Plasmodium falciparum [1]): 0.149 µM
IC50 [3]: 2.52 µM

c1ccc2c(c1)c(N1CCCCCC1)cc[n+]2Cc1ccc(OCCOc2ccc(C[n+]3ccc(N4CCCCCC4)c4ccccc43)cc2)cc1
IC50 (Plasmodium falciparum [1]): 0.142 µM
IC50 ([2]; read-out: IC50): > 15 µM
IC50 [3]: 2.36 µM

[Br-].[Br-].c1cc(OCCOc2ccc(C[n+]3ccc(N4CCCC4)cc3)cc2)ccc1C[n+]1ccc(N2CCCC2)cc1
IC50 (Plasmodium falciparum [1]): 0.016 µM
IC50 [2]: Not Active
IC50 [3]: 50 µM

CN(C)c1cc[n+](Cc2ccc(CCCCc3ccc(C[n+]4ccc(N(C)C)cc4)cc3)cc2)cc1
IC50 (Choline kinase): 106 µM
IC50 (Plasmodium falciparum [1]): 0.0035 µM
IC50 (Choline kinase alpha): 0.78 µM
IC50 (Plasmodium falciparum [4]): 0.0035 µM
IC50 [3]: 106 µM

OC1C[N+]2(Cc3ccc(OCCOc4ccc(C[N+]56CCC(CC5)C(O)C6)cc4)cc3)CCC1CC2 (stereo not given)
IC50 (Plasmodium falciparum [1]): 1.69 µM

CN(c1ccc(Cl)cc1)c1cc[n+](Cc2ccc(-c3ccc(C[n+]4ccc(N(C)c5ccc(Cl)cc5)c5ccccc54)cc3)cc2)c2ccccc12 [RSM-932A]
IC50 (Choline kinase): 1.75 µM
IC50 (Plasmodium falciparum [1]): 0.0265 µM
IC50 (Plasmodium falciparum [4]): 0.0265 µM
IC50 [3]: 1.75 µM

CN(C)c1cc[n+](Cc2ccc(CCCCc3ccc(C[n+]4ccc(N5CCCC5)cc4)cc3)cc2)cc1
IC50 (Plasmodium falciparum [1]): 0.003 µM
IC50 ([2]; read-out: IC50): 6 µM
IC50 [3]: 103 µM

CN(c1ccccc1)c1cc[n+](Cc2ccc(OCCOc3ccc(C[n+]4ccc(N(C)c5ccccc5)c5ccc(Cl)cc54)cc3)cc2)c2cc(Cl)ccc12
IC50 (Plasmodium falciparum [1]): 0.177 µM

CN(c1ccc(Cl)cc1)c1cc[n+](Cc2ccc(OCCOc3ccc(C[n+]4ccc(N(C)c5ccc(Cl)cc5)c5ccc(Cl)cc54)cc3)cc2)c2cc(Cl)ccc12
IC50 (Plasmodium falciparum [1]): 0.369 µM
IC50 [3]: 6.47 µM

CN(C)c1cc[n+](Cc2ccc(-c3ccc(C[n+]4ccc(N5CCCC5)cc4)cc3)cc2)cc1
IC50 ([2]; read-out: IC50): 12 µM
IC50 [3]: 276 µM
